In patent publication US11780821B2, “Inhibitors of fibroblast activation protein” (Praxis Biotech LLC, priority 2017, dated 2023):

Assays:
[1] = molecular target: T1, plasma FAP activity (Rattus norvegicus, UniProt A0A9K3Y732); test: rhFGF21 administration in conjunction with FAP inhibition in vivo; design: species or system Sprague Dawley rats
T1 construct: from tissue; host or cells: rat plasma after oral dosing
T1 sequence (A0A9K3Y732 1-761): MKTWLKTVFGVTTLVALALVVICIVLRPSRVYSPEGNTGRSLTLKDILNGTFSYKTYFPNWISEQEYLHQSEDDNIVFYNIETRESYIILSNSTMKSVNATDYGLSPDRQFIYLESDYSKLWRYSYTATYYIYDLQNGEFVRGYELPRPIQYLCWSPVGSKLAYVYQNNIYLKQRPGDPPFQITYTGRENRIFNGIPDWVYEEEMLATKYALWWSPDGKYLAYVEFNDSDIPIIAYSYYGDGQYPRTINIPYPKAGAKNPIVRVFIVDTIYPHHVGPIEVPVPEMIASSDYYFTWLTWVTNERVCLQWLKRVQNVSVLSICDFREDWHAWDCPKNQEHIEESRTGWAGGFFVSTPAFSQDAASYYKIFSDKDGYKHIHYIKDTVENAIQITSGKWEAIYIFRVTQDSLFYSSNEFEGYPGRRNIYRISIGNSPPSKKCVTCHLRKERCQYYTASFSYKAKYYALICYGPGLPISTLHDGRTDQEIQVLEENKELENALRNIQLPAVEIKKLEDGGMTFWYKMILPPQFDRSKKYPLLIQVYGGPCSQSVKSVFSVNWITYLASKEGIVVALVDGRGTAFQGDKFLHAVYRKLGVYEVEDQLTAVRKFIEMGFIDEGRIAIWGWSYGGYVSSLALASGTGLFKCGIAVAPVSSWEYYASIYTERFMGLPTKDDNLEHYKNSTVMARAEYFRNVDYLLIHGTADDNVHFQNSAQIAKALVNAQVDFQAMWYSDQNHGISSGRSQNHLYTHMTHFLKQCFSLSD
Description: To determine if exemplary compounds of the invention can contribute to extend the half-life of hFGF21 in vivo, rats were orally dosed with vehicle or compound 13 (an exemplary compound) followed by sub-therapeutic dose of rhFGF21.
Male Sprague Dawley rats, approximately 7-8 weeks old (˜250 g), were obtained from the vivarium of Universidad Católica de Chile (Santiago, Chile). Animals were acclimated for a minimum period of 4 days upon arrival at the testing facility. At the day of study, two rats were anesthetized using sevoflurane and subjected to surgical implantation of catheters in carotid artery and jugular vein. Catheter plugs were fixed to the external ends of the catheters and kept patent using an anti-coagulant heparinized saline solution containing 25 U/mL Heparin (Fresenius Kabi, Laboratorio Sanderson) in 0.9% NaCl Apiroflex (Fresenius Kabi, Laboratorio Sanderson). After surgical recovery, rats were weighed and identified by marking the tail with numbers using a non-toxic permanent marker for designation of treatments described in Table 9.
Compound 13 (an exemplary compound) was formulated at 5 mg/ml in vehicle PEG200/dH2O (50/50, v/v) for oral administration and rhFGF21 was formulated in 0.9% NaCl Apiroflex at 100 μg/mL. […]

[2] = molecular target: T2, recombinant mouse FAPα (rmFAPα) (Mus musculus, UniProt P97321); test: FAPα enzymatic exopeptidase (dipeptidase) activity assay; type: biochemical; details: 1 μM test compound; Z-Gly-Pro-AMC substrate; read-out: rmFAPα (% exo inh @ 1 μM)
T2 construct: purchased R&S system (so in the source)
T2 sequence (P97321 1-761): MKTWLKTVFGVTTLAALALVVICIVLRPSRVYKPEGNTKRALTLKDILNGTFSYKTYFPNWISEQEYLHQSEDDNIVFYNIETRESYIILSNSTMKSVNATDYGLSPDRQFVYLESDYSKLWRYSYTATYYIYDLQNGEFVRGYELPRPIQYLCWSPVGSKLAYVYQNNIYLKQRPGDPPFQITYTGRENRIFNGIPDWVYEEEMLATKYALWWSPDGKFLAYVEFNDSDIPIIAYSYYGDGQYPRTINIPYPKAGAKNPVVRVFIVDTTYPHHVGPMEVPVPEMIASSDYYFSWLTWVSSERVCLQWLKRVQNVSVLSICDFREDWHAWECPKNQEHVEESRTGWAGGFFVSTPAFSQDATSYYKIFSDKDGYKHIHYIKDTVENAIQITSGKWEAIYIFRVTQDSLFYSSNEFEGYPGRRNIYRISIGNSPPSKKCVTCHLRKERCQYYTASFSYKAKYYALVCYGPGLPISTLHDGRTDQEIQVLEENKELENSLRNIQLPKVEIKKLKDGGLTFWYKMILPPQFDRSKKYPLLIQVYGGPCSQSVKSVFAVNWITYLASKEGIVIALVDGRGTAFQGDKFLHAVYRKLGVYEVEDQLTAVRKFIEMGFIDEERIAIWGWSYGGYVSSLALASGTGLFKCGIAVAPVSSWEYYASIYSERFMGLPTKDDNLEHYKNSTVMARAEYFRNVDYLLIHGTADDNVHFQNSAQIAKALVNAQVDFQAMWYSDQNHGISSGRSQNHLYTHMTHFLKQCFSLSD
Method in brief: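 AMC release read by fluorescence at Ex/Em 380/460 nm. Substrate-only (no enzyme) wells subtracted as blank; percent inhibition relative to vehicle + enzyme + substrate as maximal activity. Single-point measurement, run in duplicate.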

inhibition at 1 µM [2] | SMILES | amount of rhFGF21 detected through time in the plasma ([1]; 50 mg/kg PO pre-treatment, then rhFGF21 90 μg/Kg IV) | plasma FAP activity ([1]; oral single dose of 50 mg/kg)
– | N#C[C@@H]1CC(F)(F)CN1C(=O)CNC(=O)c1ccncc1-c1ccccc1 [Compound 13, (S)—N-(2-(2-cyano-4,4-difluoropyrrolidin-1-yl)-2-oxoethyl)-3-phenylisonicotinamide] | increased | potently suppressed
> 50% | N#C[C@@H]1CC(F)(F)CN1C(=O)CNC(=O)c1c[nH]c(=O)c2ccccc12 [Example 1, (S)—N-(2-(2-cyano-4,4-difluoropyrrolidin-1-yl)-2-oxoethyl)-1-oxo-1,2-dihydroisoquinoline-4-carboxamide] | – | –
